Data on two compounds can be found in patent US10638959B2, “Oral pH and buffering capacity modifiers” (CAO Group, LLC, priority 2010, dated 2020).

Entries after “also recorded” stand apart in the source; their conditions may differ.

The nature of the series: Immediate release of calcium ion of various salts by a calcium test kit by EM Quant. Type of series: physicochemical. Conditions: contact with water.

For `CC(O)C(=O)[O-].CC(O)C(=O)[O-].O.O.O.O.O.[Ca+2]` (centres unmarked) [Calcium lactate pentahydrate], the “Immediate release of calcium ion (availability of calcium ion)” value is reported as “most readily available calcium ion source”. Regarding “Calcium ascorbate [Calcium ascorbate (citrate)]”, the “Immediate release of calcium ion (availability of calcium ion)” value was “most readily available calcium ion source; also recorded: provided calcium ions on contact with water”.
